The text below walks through data of patent US20130035321A1, “COMPOUNDS FOR THE TREATMENT OF OCULAR CANCER” (AnalytiCon Discovery GmbH, priority 2009, published 2013).

In general, IC50 refers to the concentration needed to halve the response being measured.

The structures appear in SMILES notation. Entries after “also recorded” stand apart in the source; their conditions may differ. Where two headings read alike, the source gives them in different places.

Series [1] concerns Y79 cells. The series is described as follows: Cytotoxicity dose response in 384-well plates (Alamar Blue), Y79. Format: cell-based, human. The note with it: for activity toward Y79 cells below 100 μM: upper limit 100 μM; for IC50: read-out: IC50 toward Y79 cells. How it is done: (§1) Dose response studies were performed in 384-well microtiter plates (#3712, Corning Inc., Corning, N.Y.) according to the following protocol: cells were added in 45 μL medium to the screening plates using Flexdrop. After 72 h incubation was added 5 μL Alamar Blue using Flexdrop. The cells were then incubated for another 24 h, and the fluorescence intensity was read on LEADseeker™ Multimodality Imaging System as previously described. To calculate the IC50 for each compound toward each cell line, the dose response was assessed in duplicate and using 12 point doubling dilutions with 100 μM compound concentration as the upper limit. The dose response curve for each set of data was fitted separately, and the two IC50 values obtained were averaged.
as §1, with “averaged. […] IC50 of 0.1 corresponds to <0.1 μM and IC50 of 100 corresponds to >100 μM.” for “averaged.”

In a further series the test system is RB355 cells. The series is described as follows: Cytotoxicity dose response in 384-well plates (Alamar Blue), RB355. It is filed as cell-based, human. As to conditions: for activity toward RB355 cells below 100 μM: upper limit 100 μM. As for the experimental part:
as §1
as §1, with “averaged. […] IC50 of 0.1 corresponds to <0.1 μM and IC50 of 100 corresponds to >100 μM.” for “averaged.”
For orientation: The colour change of resazurin is a common sign of viable cells or microbes.

Another series deals with stage Vb retinoblastoma. Format: in vivo, human.
The test system of series [2] is Y79 cells. It is filed as cell-based, human.
In series [3] the test system is Y79 cells. Format: cell-based, human. The source holds these as a separate data set.
For series [4], the system named is Y79, RB355, WERI-Rb-1 and C918 ocular cancer cell lines. The series is described as follows: Dose response (SAR) of 35 cardenolides in a panel of four ocular cancer cell lines. Format: cell-based, human. The note with it: panel Y79, RB355, WERI-Rb-1, C918. How it is done:
as §1
To explore the structure activity relationship (SAR) within this chemical class a collection of 35 cardenolides and derivatives was constituted. The dose response for each compound toward the ocular cancer cell lines Y79, RB355, WERI-Rb-1 and C918 was then assessed.

The subject of the next series is Y79LUC cells. In words: Subcutaneous Y79LUC xenograft model of retinoblastoma. It is filed as in vivo, mouse. How it is done: Subcutaneous xenograft experiments were performed at the Memorial Sloan-Kettering Cancer Center Antitumor Assessment Core Facility. Y79LUC cells (10E6) embedded in matrigel (BD Biosciences, San Jose, Calif.) were injected subcutaneously in the right flank of 8-weeks old ICR/SCID male mice. Treatment started when the tumors reached approximately 250 mm^3. The mice were randomized into three groups and two mice per group were treated with either 10% DMSO (v/v) (control group), 1.5 mg/kg ouabain or 15 mg/kg ouabain. Treatment was performed by continuous subcutaneous infusion using osmotic minipumps (#1007D, Alzet, Cupertino, Calif.). Tumor size was measured externally two times a week with a caliper. Body weight of each mouse was monitored as well as other signs of toxicity throughout the treatment period. Bioluminescent imaging of the tumors was performed once a week and prior to sacrifice as follows: mice were anesthetized by isofluorane inhalation and injected with D-luciferin at 50 mg/Kg (Xenogen) intraperitoneally; photonic emission was measured with the In Vivo Imaging System (IVIS 200, Xenogen) with a collection time of 5 seconds.
The therapeutic effect of the drug ouabain in a mouse xenograft model of retinoblastoma was also investigated. Three groups of two 8 weeks old ICR/SCID male mice bearing Y79 tumors implanted in the flank were treated with either vehicle only, 1.5 mg/kg ouabain or 15 mg/kg ouabain. Mice were continuously infused subcutaneously using an osmotic minipump delivery system. […] In comparison, tumors in the vehicle-treated control group continuously grew, necessitating to euthanize the animals at day 19.

The mark [5] stands for this setting: Homo sapiens, read-out: IC50 toward RB355 cells.

In the case of `C=C1/C(=C\C=C2/CCC[C@]3(C)[C@@H]([C@H](C)CCCC(C)(C)O)CC[C@@H]23)C[C@@H](O)C[C@@H]1O` [calcitriol], in the series with Y79 cells [1], the “activity toward Y79 cells below 100 μM” value is “did not demonstrate any significant activity toward Y79 cells below 100 μM”. In the series with RB355 cells, the “activity toward RB355 cells below 100 μM” value is “neither caboplatin or calcitriol had any significant activity below 100 μM”.

As to `N.N.O=C([O-])C1(C(=O)[O-])CCC1.[Pt+2]` [carboplatin], the “activity toward Y79 cells below 100 μM” value in the series with Y79 cells [1] is given as “did not demonstrate any significant activity toward Y79 cells below 100 μM”. Besides, the “activity toward RB355 cells below 100 μM” value with RB355 cells was “neither caboplatin or calcitriol had any significant activity below 100 μM”.

Turning to `N.N.[Cl][Pt][Cl]` [cisplatin], in the series on Y79 cells [1], the “activity toward Y79 cells below 100 μM” value is given as “did not demonstrate any significant activity toward Y79 cells below 100 μM”. Also, the “maximum inhibition toward RB355 cells” value with RB355 cells (at 100 μM) worked out at 65%.

For `C[C@H]1O[C@@H](O[C@H]2[C@@H](O)C[C@H](O[C@H]3[C@@H](O)C[C@H](O[C@H]4CC[C@@]5(C)[C@H](CC[C@@H]6[C@@H]5C[C@@H](O)[C@]5(C)[C@@H](C7=CC(=O)OC7)CC[C@]65O)C4)O[C@@H]3C)O[C@@H]2C)C[C@H](O)[C@@H]1O` [digoxin], in the series on stage Vb retinoblastoma (in vivo), the “exam three weeks after intraarterial infusion” value is “Exam remained stable”; the “exam three weeks after second round of intraarterial infusion” value was “decreased tumor size, fewer vitreous seeds, and resolution of the retinal detachment”; the “exam three weeks after third intraarterial dose” value is recorded as “measurable but modest improvement but residual active disease”. For the same compound, the “reexamination after oral treatment” value in the series on stage Vb retinoblastoma (in vivo, po) is reported as “progression of disease”.

`COc1cc([C@@H]2c3cc4c(cc3[C@@H](O[C@@H]3O[C@@H]5CO[C@@H](C)O[C@H]5[C@H](O)[C@H]3O)[C@H]3COC(=O)[C@H]23)OCO4)cc(OC)c1O` [etoposide]: the IC50 in the series on Y79 cells [1] (Homo sapiens, Y79) stood at 11000 nM; with RB355 cells (setting [5]) it was 970 nM. Besides, the “apoptosis (activated Caspase-3) compared to baseline” value (“apoptosis … compared to baseline” below) with Y79 cells [2] is given as “induced significant apoptosis”.

Take `N[C@@H](Cc1ccc(N(CCCl)CCCl)cc1)C(=O)O` [melphalan]: in the series with stage Vb retinoblastoma (three cycles, administered elsewhere before presentation), the “response to intraarterial chemotherapy” value was “incomplete response; also recorded: no regression on the main tumor or vitreous seeds”.

Regarding `COc1ccc(C2=N[C@@H](c3ccc(Cl)cc3)[C@@H](c3ccc(Cl)cc3)N2C(=O)N2CCNC(=O)C2)c(OC(C)C)c1` [nutlin-3], the half-maximal inhibitory concentration (IC50) in the series with Y79 cells [1] was 78000 nM; in the series on RB355 cells (read-out: IC50 toward RB355 cells), 11000 nM.

For the compound `C[C@@H]1O[C@@H](O[C@H]2C[C@@H](O)[C@]3(CO)[C@H]4[C@H](O)C[C@]5(C)[C@@H](C6=CC(=O)OC6)CC[C@]5(O)[C@@H]4CC[C@]3(O)C2)[C@H](O)[C@H](O)[C@H]1O` [ouabain], the “effect on Y79 cells in Yo-Pro pilot study” value in the series on Y79 cells [3] is recorded as “eradicated Y79 cells”. Further, the “activity across the panel of ocular cell lines” value in series [4] is on record as “potent activity across the entire panel of ocular cell lines tested”. Besides, the IC50 was found to be 650 nM in the series on Y79 cells [1] (Homo sapiens, Y79) and 400 nM with RB355 cells (setting [5]). Also, the “apoptosis … compared to baseline” value in the series on Y79 cells [2] is listed as “induced significant apoptosis; also recorded: induces apoptosis”. For the same compound, the “tumor burden compared to the control group” value with Y79LUC cells (1.5 mg/kg, continuous subcutaneous infusion) is “seemed to reduce the tumor burden”. The “tumor burden by bioluminescent imaging” value in the series on Y79LUC cells (15 mg/kg, continuous subcutaneous infusion by minipump, after 14 days of treatment) was “complete tumor regression”. The same compound registered an average tumor size with Y79LUC cells (15 mg/kg, day 14, caliper) of 18 mm^3. The “toxicity (average body weight, signs of toxicity)” value in the series on Y79LUC cells (15 mg/kg, throughout treatment period) was “did not induce any significant toxicity; also recorded: no signs of toxicity were observed”.

For the compound `CC[C@]1(O)C[C@H]2CN(CCc3c([nH]c4ccccc34)[C@@](C(=O)OC)(c3cc4c(cc3OC)N(C=O)[C@H]3[C@@](O)(C(=O)OC)[C@H](OC(C)=O)[C@]5(CC)C=CCN6CC[C@]43[C@@H]65)C2)C1` [vincristine], the “plateau of inhibition toward Y79 cells” value with Y79 cells [1] (plateau prevented calculation of IC50) is given as 50%. In addition, the IC50 in the series on RB355 cells (Homo sapiens, read-out: IC50 toward RB355) was 1.6 nM. Besides, the “apoptosis … compared to baseline” value in the series with Y79 cells [2] is on record as “induced significant apoptosis”.
